{"source": "the NIST ThermoML archive (doi:10.1021/je500422t)", "key": {"[1]": {"conditions": "Liquid; for mass density: 298.2 K, 101.33 kPa, Vibrating tube method; for Normal boiling temperature: Distillation"}, "[2]": {"assay": "refractive index (Na D-line) (dimensionless)", "conditions": "298.2 K; 101.33 kPa; Liquid; Standard Abbe refractometry"}}, "note": "Numbers after ± are expanded uncertainties."}
{"smiles": "COC(=O)OC", "note": "[dimethyl carbonate]", "values": [{"measurement": "mass density", "setting": "[1]", "value": "1061.9 ± 1", "unit": "kg/m3"}, {"measurement": "Normal boiling temperature", "setting": "[1]", "value": "90.08 ± 1.1", "unit": "°C"}, {"measurement": "refractive index", "setting": "[2]", "value": "1.3685 ± 0.0004"}]}
{"smiles": "O=CO", "note": "[formic acid]", "values": [{"measurement": "mass density", "setting": "[1]", "value": "1220.04 ± 1.1", "unit": "kg/m3"}, {"measurement": "Normal boiling temperature", "setting": "[1]", "value": "101.2 ± 1.1", "unit": "°C"}, {"measurement": "refractive index", "setting": "[2]", "value": "1.37144 ± 0.00039"}]}
